Laboratory results taken from US6875843B2, “Prevention of diabetes and prolongation of the honeymoon phase of diabetes by administration of GnRH antagonists” (Children's Mercy Hospital, priority 2001, dated 2005).

Columns and labels:
Type in all cases: in vivo, mouse
[1] = test system: NOD mice; assay: Serum total immunoglobulin G in gonadectomized NOD mice (single radial immunodiffusion); conditions: 100 μg s.c. six times weekly, 8 weeks of treatment, vs vehicle (FIG. 3)
Text: (§1) Mice. The well-characterized NOD mice were used throughout the study. Male and female mice were purchased from the Jackson Laboratory (Bar Harbor, Me.). These mice are art-recognized animal models used in diabetes research. (Makino et al., (1980) Breeding of a Non-obese Diabetic Strain of Mice. Exp Anim, 29, 1-13; Miyazaki, A. T., et al, (1985) Predominance of T Lymphocytes in Pancreatic Islets and Spleen in Prediabetic Non-Obese Diabetic (Nod) Mice: a Longitudinal Study. Clin Exp immunol, 60, 622-630)
Experimental Design. Both intact and gonadectomized mice (GDX) were used. […] To compare the effects of GnRH agonists and antagonists, gonadectomized animals were randomized at 14 to 18 days of age and begun immediately in one of the following main treatment groups: GnRH agonist; Antide; vehicle. One group of gonadectomized males was treated with Nal-Glu, as an additional control. […]
Clinical tests. Total immunoglobulin G concentrations were measured by single radial immunodiffusion assay using immunodiffusion plates containing monospecific antiserum for IgG (ICN Biomedicals, Inc., Costa Mesa, Calif. ). […] Glycosuria was scored by comparison to reference standards on a scale of 0 to 4 as follows: negative=0; 30 mg/dL=1; 100 mg/dL=2; 300 mg/dL=3;>1000 mg/dL=4.
Statistics. […] Percentages of mice remaining diabetes-free was assessed by Mantel-Haenszel methodology. […]

[2] = test system: NOD mice; assay: Incidence and onset of diabetes in gonadectomized male NOD mice; conditions: for Timing of onset of diabetes: gonadectomized NOD mice; for Timing of onset of diabetes / Incidence of diabetes: 100 μg s.c. six times weekly (FIG. 4)
Text: as §1
Experimental Design. Both intact and gonadectomized mice (GDX) were used. […] To compare the effects of GnRH agonists and antagonists, gonadectomized animals were randomized at 14 to 18 days of age and begun immediately in one of the following main treatment groups: GnRH agonist; Antide; vehicle. One group of gonadectomized males was treated with Nal-Glu, as an additional control.
(§2) Gonadectomy. Males were gonadectomized via a single scrotal incision under pentobarbital anesthesia.
(§3) Injections. GnRH (native decapeptide) was purchased from Bachem (Bubendorf, Switzerland). GnRH antagonist Antide (Acetyl-β-[2-Naphthyl]-D-Ala-D-p-Chloro-Phe-β-[3-Pyridyl]-D-Ala-Ser-Nε-[Nicotinoyl]-Lys-Nε-[Nicotinoyl]-D-Lys-Leu-Nε-[Isopropyl]-Lys-Pro-D-Ala-NH2) was supplied by Contraceptive Development Branch (NICHHD) of the National Institutes of Health and Ares-Serono (Randolph, Mass.). A second GnRH antagonist, Nal-Glu (acetyl-D2Nal1, D4CIPhe2, D3Pal3, Arg5, Dglu6 (AA), DAla10) was supplied by NICHHD and was used on a subset of mice. All references to GnRH agonist refer to the native decapeptide. Animals were injected subcutaneously in the nape of the neck six times weekly, in the a.m., with 100 μg of GnRH or GnRH antagonist in 100 μl of vehicle consisting of 50% propylene glycol and 50% double distilled water.
Clinical tests. Total immunoglobulin G concentrations were measured by single radial immunodiffusion assay using immunodiffusion plates containing monospecific antiserum for IgG (ICN Biomedicals, Inc., Costa Mesa, Calif. ). Serum glucoses were checked weekly using a One Touch Fast Take meter (Lifescan, Milpitas, Calif.) Urine was tested for glucose by urinalysis reagent strips (Miles, Inc., Elkhart Ind.). Glycosuria was scored by comparison to reference standards on a scale of 0 to 4 as follows: negative=0; 30 mg/dL=1; 100 mg/dL=2; 300 mg/dL=3;>1000 mg/dL=4.
Statistics. Serum immunoglobulin measurements were compared by two-tailed Student's paired t-tests. Percentages of mice remaining diabetes-free was assessed by Mantel-Haenszel methodology. (Mantel, N. (1966) Evaluation of Survival Data and Two New Rank Order Statistics Arising in its Consideration. Cancer Chemother Rep, 50, 163-70)

[3] = test system: NOD mice; assay: Lymphocytic infiltration of islet cells, pancreatic histology in gonadectomized NOD mice; conditions: 100 μg s.c. six times weekly, 3, 5, 7, 9 and 11 weeks, vs vehicle (FIG. 5)
Method: In this example, gonadectomized NOD mice were treated with either the GnRH antagonist Antide or the vehicle (50% propylene glycol and 50% double distilled water) to determine differences in the rate of lymphocytic infiltration of islet cells.
Mice. The well-characterized NOD mice were used throughout the study. Male and female mice were purchased from the Jackson Laboratory (Bar Harbor, Me.). Again, these mice are art-recognized animal models used in diabetes research.
as §2
Injections. The mice were injected subcutaneously in the nape of the neck six times weekly, in the a.m., with 100 μg of the GnRH antagonist in 100 μl of vehicle consisting of 50% propylene glycol and 50% double distilled water.
Pancreatic Histology. Three mice per treatment group were euthanized at 3, 5, 7, 9, and 11 weeks. Pancreatic histologic sections were stained by hemotoxillin and eosin. Ten tissue sections per treatment group were examined. All […] in each tissue section were scored with regard to the presence or absence of lymphocytic infiltrates.

[4] = test system: NOD mice; assay: Serum prolactin by radioimmunoassay in NOD mice; conditions: 100 μg s.c. six times weekly
Text: as §3
Sera. Sera were collected from blood obtained every six weeks by retroorbital puncture after light isofluorane anesthesia.
Hormone measurements. Serum testosterone concentrations were measured by RIA using a commercial kit (Coat-A-Count, Diagnostic Products Corporation, Los Angeles, Calif.). Serum LH and prolactin were measured by radioimmunoassay (RIA) using previously described methods. […]

Acetyl-β-[2-Naphthyl]-D-Ala-D-p-Chloro-Phe-β-[3-Pyridyl]-D-Ala-Ser-Nε-[Nicotinoyl]-Lys-Nε-[Nicotinoyl]-D-Lys-Leu-Nε-[Isopropyl]-Lys-Pro-D-Ala-NH2 [Antide]
Serum IgG concentrations [1]: reduced serum IgG concentrations to levels seen in sham operated mice | Timing of onset of diabetes [2]: delayed onset of diabetes | Incidence of diabetes ([2]; gonadectomized male NOD mice): significantly decreased | Percentage of treated mice diabetic ([2]; gonadectomized male NOD mice, 100 μg s.c. six times weekly, at 60 weeks of age, compared to vehicle (FIG. 4)): 0% | Lymphocytic infiltration of islets (percentages of islets infiltrated) [3]: statistically significant reduction in lymphocytic infiltration | Serum prolactin levels [4]: neither agonist nor antagonist treatment altered serum prolactin levels

GnRH agonist: GnRH native decapeptide purchased from Bachem; all references to GnRH agonist refer to the native decapeptide (QHWSYGLRPG; Gonadoliberin-1; UniProt P01148 24-33, looked up)
Serum IgG concentrations [1]: further increased IgG levels compared to vehicle | Timing of onset of diabetes [2]: accelerated | Incidence of diabetes ([2]; gonadectomized male NOD mice): significantly increased | Serum prolactin levels [4]: neither agonist nor antagonist treatment altered serum prolactin levels
